These results are taken from ChEMBL document CHEMBL1201862, “PubChem BioAssay data set” (2004).

Test [1] can be described thus: luciferase reporter signal suppression in cells – H4 neuroglioma cells, luminescence, dose response (AID 1990). Format: functional, cell-based. (In general: In a reporter assay the amount or activity of a reporter protein is the signal.)
Test [2] can be described thus: Luminescence Cell-Based Dose Response HTS to Identify Inhibitors of 5'UTR Stem-Loop Driven Prion Protein mRNA Translation in H4 Neuroglioblastoma Cells. [Related pubchem assays: 1827 (Project Summary), 1813 (Primary HTS)]. Format: functional.
Another test has as its system Danio rerio. Description: In Vivo Angiogenesis Dose-Response Confirmation. [Related pubchem assays: 732 (Assay preceding this confirmatory assay.)]. Format: functional, organism-based.
Another test addresses Cytochrome P450 3A4 (Homo sapiens, UniProt P08684).
Test [3] can be described thus: Late stage counterscreen results from the probe development effort to identify activators of signal transducer and activator of transcription 1 (STAT1): luminescence-based cell-based dose response assay to identify cytotoxic compounds. Format: functional. (Counterscreens check selectivity or assay interference.)
Test [4] in a line: Luminescent dose response cell-based high throughput screening assay for inhibitors of the Janus kinase 2 mutant JAK2V617F. [Related pubchem assays: 1446 (Primary screen.), 1521 (Confirmation assay.), 1486 (Counter screen.)]. The test is classed as functional.
Another test has as its target T1, Leucine aminopeptidase (Plasmodium falciparum 3D7, UniProt Q8IL11).
T1 sequence (Q8IL11 whole entry): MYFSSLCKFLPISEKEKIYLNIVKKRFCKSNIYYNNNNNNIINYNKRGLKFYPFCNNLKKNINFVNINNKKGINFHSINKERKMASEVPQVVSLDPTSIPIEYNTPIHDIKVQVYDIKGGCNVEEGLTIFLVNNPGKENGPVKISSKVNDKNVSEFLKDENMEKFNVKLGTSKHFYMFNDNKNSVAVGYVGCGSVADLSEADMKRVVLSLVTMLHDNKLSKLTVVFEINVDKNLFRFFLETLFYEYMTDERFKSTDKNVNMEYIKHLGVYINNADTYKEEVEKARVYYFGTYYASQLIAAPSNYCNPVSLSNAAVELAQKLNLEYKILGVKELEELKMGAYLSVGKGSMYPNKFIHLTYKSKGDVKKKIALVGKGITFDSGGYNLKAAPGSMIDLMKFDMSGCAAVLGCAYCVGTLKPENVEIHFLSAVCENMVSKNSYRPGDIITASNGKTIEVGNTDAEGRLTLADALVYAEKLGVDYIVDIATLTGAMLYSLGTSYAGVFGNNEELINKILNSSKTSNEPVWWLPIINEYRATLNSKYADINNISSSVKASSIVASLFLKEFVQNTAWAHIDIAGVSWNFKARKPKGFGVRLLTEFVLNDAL
Description: P. falciparum M17LAP inhibitors, primary screen, biochemical, fluorogenic H-Leu-NHMec substrate, 1536-well (AID 1619). Format: functional.

The next test concerns the target Heat shock protein HSP90 (Homo sapiens, UniProt P07900+P08238). Description: Hsp90 blockade concentration-response – dose response (AID 712). Format: functional.
The next test concerns the target Large T antigen (Simian virus 40, UniProt P03070). Format: functional, Betapolyomavirus macacae.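 Note: Confirmatory-stage PubChem screen for compounds that inhibit SV40 T antigen.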
Test [5] deals with FAD-linked sulfhydryl oxidase ALR (Homo sapiens, UniProt P55789). Description: ALR-catalysed DTT oxidation blockers – biochemical, H2O2 detection, luminescence, cherry-pick, dose response (AID 493248).
Chain of FAD-linked sulfhydryl oxidase ALR (P55789 whole entry): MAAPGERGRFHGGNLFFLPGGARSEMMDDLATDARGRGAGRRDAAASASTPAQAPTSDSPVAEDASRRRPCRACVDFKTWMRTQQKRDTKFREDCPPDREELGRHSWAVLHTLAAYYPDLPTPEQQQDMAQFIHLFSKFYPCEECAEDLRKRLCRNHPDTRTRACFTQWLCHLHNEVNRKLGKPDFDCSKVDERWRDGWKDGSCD
For test [6], the target named is T2, Rac GTPase-activating protein 1 (Homo sapiens, UniProt Q9H0H5).
T2 sequence (Q9H0H5 whole entry): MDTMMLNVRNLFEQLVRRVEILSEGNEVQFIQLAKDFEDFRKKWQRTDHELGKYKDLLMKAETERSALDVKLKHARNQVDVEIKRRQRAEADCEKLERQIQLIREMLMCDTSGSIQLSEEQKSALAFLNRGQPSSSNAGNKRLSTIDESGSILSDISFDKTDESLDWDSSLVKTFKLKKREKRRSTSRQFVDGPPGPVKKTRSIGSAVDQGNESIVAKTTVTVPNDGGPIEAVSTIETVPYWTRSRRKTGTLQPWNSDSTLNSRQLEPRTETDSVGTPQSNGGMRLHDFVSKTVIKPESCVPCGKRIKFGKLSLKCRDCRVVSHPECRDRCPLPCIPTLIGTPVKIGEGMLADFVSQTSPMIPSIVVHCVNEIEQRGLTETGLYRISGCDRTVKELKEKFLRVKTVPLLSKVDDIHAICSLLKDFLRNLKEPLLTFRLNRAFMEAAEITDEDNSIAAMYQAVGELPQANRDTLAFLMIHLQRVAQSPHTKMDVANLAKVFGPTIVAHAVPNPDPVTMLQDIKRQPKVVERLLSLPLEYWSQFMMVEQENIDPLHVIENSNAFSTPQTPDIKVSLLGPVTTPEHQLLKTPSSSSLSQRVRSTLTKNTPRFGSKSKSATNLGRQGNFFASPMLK
Description: blockers of MgcRacGAP-driven Rac1 GTP hydrolysis – biochemical, ADP Hunter fluorescence, primary and confirmatory, confirmation (AID 624330). The test is classed as functional.

Test [7] addresses Peroxisome proliferator-activated receptor gamma/Nuclear receptor coactivator 1 (Homo sapiens, UniProt P37231). Description: TR-FRET dose response biochemical High Throughput Screening assay for agonists of the steroid receptor coactivator 1 (SRC-1) recruitment by the peroxisome proliferator-activated receptor gamma (PPAR gamma): non-selective agonists. [Related pubchem assays (depositor defined):AID1300, AID1808, AID504735, AID631]. The test is classed as protein assay.

The target of test [8] is Peroxisome proliferator-activated receptor gamma/Nuclear receptor coactivator 3 (Homo sapiens, UniProt P37231). Description: TR-FRET dose response biochemical High Throughput Screening assay for agonists of the steroid receptor coactivator 3 (SRC-3) recruitment by the peroxisome proliferator-activated receptor gamma (PPAR gamma): non-selective agonists. [Related pubchem assays: 1301 (Confirmation screen.), 1048 (Primary screen.)]. The test is classed as functional. A general note: In TR-FRET formats the signal depends on donor and acceptor labels being close together.
Chain of Peroxisome proliferator-activated receptor gamma/Nuclear receptor coactivator 3 (P37231 whole entry): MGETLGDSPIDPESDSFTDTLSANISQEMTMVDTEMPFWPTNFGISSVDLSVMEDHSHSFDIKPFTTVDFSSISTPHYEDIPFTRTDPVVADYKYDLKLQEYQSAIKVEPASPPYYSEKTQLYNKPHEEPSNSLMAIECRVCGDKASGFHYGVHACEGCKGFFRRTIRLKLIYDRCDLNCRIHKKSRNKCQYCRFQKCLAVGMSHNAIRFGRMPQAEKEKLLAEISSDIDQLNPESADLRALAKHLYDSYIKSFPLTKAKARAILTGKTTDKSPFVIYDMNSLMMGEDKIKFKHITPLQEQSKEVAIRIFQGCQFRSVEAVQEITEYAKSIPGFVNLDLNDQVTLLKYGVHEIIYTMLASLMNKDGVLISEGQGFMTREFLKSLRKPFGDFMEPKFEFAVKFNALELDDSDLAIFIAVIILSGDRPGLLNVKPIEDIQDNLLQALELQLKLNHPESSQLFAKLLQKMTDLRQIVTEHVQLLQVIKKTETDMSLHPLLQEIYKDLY
Chain of Peroxisome proliferator-activated receptor gamma/Nuclear receptor coactivator 3 (Q9Y6Q9 whole entry, further chain): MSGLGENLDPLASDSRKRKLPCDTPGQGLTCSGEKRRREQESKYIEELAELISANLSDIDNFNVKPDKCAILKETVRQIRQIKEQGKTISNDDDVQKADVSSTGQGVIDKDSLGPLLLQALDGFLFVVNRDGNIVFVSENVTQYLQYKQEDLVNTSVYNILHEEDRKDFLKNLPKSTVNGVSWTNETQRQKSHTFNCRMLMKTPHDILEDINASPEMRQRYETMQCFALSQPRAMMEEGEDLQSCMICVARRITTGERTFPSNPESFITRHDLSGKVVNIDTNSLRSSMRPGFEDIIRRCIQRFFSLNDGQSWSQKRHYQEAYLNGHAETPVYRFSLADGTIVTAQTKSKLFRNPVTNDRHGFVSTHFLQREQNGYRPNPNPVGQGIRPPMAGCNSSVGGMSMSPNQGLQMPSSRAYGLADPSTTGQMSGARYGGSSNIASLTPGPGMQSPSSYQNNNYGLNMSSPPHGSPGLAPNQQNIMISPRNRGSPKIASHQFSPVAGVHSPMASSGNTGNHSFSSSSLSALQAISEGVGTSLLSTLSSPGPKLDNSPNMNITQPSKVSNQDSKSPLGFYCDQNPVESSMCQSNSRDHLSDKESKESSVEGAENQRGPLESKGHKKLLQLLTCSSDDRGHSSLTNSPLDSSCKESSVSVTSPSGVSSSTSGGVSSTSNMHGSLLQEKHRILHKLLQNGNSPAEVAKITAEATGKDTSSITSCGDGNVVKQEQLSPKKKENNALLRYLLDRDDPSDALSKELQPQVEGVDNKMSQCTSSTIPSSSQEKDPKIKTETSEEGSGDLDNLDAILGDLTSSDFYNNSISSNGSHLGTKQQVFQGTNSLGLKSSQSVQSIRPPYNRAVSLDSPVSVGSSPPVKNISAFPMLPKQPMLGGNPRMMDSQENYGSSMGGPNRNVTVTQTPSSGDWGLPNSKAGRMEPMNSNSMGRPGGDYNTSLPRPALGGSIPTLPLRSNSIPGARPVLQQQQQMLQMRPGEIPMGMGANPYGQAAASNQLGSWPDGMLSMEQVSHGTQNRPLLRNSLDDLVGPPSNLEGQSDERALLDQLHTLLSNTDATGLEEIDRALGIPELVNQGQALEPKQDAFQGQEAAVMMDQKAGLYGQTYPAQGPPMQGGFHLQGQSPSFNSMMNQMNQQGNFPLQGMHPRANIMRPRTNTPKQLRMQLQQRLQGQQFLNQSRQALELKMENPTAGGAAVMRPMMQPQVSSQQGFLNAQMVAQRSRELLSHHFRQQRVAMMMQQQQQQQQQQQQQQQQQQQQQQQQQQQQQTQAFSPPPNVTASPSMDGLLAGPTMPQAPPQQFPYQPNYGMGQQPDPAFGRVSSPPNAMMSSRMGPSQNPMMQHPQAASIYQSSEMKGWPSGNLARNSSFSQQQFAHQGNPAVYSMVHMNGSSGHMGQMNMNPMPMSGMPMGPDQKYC

Test [9] addresses Peroxisome proliferator-activated receptor gamma/Nuclear receptor corepressor 2 (Homo sapiens, UniProt P37231+Q9Y618). Description: Counterscreen for NR2E3 inverse agonists: TR-FRET-based biochemical high throughput dose response assay to identify inverse agonists of the interaction between peroxisome proliferator-activated receptor gamma (PPARg) and nuclear receptor co-repressor 2 (NCOR2). The test is classed as functional.

In test [10] the target is Photoreceptor-specific nuclear receptor (Homo sapiens, UniProt Q9Y5X4). Description: ligands suppressing NR2E3 nuclear receptor activity – biochemical, TR-FRET, dose response (AID 463256). Format: functional.
Chain of Photoreceptor-specific nuclear receptor (Q9Y5X4 whole entry): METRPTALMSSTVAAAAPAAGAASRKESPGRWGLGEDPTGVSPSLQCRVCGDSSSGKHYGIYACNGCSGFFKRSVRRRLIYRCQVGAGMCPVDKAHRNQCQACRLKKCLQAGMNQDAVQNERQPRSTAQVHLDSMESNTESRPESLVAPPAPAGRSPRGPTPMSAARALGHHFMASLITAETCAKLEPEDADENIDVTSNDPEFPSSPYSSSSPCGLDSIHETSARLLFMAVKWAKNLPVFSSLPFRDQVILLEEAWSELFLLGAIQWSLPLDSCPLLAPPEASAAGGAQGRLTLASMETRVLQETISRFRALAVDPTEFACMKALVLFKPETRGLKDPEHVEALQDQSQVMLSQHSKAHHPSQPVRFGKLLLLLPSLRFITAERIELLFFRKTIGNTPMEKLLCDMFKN
Test [11] addresses Peroxisome proliferator-activated receptor gamma/Nuclear receptor coactivator 2 (Homo sapiens, UniProt P37231). Description: TR-FRET dose response biochemical High Throughput Screening assay for agonists of the steroid receptor coactivator 2 (SRC-2) recruitment by the peroxisome proliferator-activated receptor gamma (PPAR gamma): non-selective agonists. [Related pubchem assays: 1297, 1032 ]. Format: functional.

Another test concerns the target Cytochrome P450 2C19 (Homo sapiens, UniProt P33261). Description: qHTS Assay for Inhibitors and Substrates of Cytochrome P450 2C19. [Related pubchem assays: 410 ]. The test is classed as ADME. The settings on record: read-out: Potency.
For test [12], the target named is G-protein coupled receptor 35 (Homo sapiens, UniProt Q9HC97). Description: inhibition of zaprinast-stimulated GPR35 beta-arrestin translocation – imaging, U2OS, beta-arrestin-GFP, zaprinast agonist, primary screen (AID 2058).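 Note: antagonist potency meaning inhibition of agonist-induced arrestin redistribution.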 The test is classed as functional.
Chain of G-protein coupled receptor 35 (Q9HC97 whole entry): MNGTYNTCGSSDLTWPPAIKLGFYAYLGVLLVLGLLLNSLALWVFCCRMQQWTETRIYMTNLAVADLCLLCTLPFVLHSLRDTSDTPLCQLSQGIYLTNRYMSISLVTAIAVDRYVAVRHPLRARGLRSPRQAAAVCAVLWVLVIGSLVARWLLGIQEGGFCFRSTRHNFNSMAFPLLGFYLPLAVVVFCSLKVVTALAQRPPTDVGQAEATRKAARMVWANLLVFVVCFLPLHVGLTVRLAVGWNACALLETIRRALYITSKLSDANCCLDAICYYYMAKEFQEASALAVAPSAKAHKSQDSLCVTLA
The target in test [13] is T3, RNA-binding protein pos-1 (Caenorhabditis elegans, UniProt G5EF15).
T3 sequence (G5EF15 whole entry): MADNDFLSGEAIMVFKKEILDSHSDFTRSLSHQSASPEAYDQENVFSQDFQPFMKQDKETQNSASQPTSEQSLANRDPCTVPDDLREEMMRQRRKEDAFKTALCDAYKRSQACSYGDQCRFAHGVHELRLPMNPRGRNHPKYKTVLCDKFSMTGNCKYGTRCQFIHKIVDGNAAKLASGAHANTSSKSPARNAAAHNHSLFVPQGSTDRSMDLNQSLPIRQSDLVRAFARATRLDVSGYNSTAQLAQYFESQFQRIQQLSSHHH
Description: disruptors of C. elegans POS-1 RNA interaction – biochemical, fluorescence polarization, dose response (AID 1964).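 Note: purified POS-1 fused to maltose binding protein made in E. coli; potency of compounds blocking POS-1 binding to fluorescent RNA.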

Test [14] concerns the target T4, Bcl-2-related protein A1 (Mus musculus, UniProt Q07440).
T4 sequence (Q07440 whole entry): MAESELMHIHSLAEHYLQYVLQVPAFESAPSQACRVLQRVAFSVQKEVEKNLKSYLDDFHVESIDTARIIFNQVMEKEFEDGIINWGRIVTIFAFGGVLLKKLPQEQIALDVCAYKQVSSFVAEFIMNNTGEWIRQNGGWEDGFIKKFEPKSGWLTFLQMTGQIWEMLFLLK
Description: displacement of Bid BH3 peptide from Bfl-1 – biochemical, fluorescence polarization, FITC-Bid, mouse, primary screen (AID 432).

In test [15] the target is T5, Zinc finger protein mex-5 (Caenorhabditis elegans, UniProt Q9XUB2).
T5 sequence (Q9XUB2 whole entry): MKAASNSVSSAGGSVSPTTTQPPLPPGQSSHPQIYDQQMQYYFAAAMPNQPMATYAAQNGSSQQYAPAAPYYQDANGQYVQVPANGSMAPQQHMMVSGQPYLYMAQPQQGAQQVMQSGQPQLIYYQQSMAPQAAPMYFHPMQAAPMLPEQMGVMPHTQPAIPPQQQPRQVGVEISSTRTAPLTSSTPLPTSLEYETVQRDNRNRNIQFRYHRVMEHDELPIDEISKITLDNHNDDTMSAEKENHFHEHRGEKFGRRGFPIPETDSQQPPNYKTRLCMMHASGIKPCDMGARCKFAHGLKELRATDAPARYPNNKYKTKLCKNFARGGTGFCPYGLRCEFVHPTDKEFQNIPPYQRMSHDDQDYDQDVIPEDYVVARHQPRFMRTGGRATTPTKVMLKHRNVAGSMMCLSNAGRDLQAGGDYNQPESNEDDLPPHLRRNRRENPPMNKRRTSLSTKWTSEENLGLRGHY
Description: potency of MEX-5 RNA-binding blockers – biochemical, C. elegans, fluorescence polarization, dose response (AID 1960).

In test [16] the target is T4, Bcl-2-related protein A1. Description: small-molecule antagonists of Bfl-1/BH3 interaction – biochemical, TR-FRET, mouse Bfl-1, confirmation (AID 621).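 Note: TR-FRET binding of GST-Bfl-1 to FITC-labelled Bid peptide via terbium antibody.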
The target of test [17] is T6, Heat shock factor protein 1 (Mus musculus, UniProt P38532).
T6 sequence (P38532 whole entry): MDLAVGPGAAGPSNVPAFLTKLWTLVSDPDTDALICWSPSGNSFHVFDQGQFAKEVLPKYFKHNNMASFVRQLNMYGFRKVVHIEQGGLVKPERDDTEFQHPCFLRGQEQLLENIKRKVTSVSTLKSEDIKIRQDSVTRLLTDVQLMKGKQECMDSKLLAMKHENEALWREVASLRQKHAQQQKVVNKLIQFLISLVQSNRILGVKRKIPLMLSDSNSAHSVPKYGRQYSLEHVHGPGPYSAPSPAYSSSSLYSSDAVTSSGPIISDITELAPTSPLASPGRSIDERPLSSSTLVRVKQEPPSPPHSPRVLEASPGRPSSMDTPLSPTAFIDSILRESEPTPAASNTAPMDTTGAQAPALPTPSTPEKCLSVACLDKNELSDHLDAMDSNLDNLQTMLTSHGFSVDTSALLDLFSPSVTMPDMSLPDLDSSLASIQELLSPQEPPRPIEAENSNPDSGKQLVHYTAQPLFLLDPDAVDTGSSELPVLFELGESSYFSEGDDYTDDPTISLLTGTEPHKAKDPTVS
Description: enhancement of HSF1-driven luciferase signal – cell-based, NIH3T3, luminescence, dose retest, confirmation (AID 435004).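 Note: stress induced by proteasome inhibitor MG132 added 30 min after compound; luciferase reporter driven by HSF1 response element in NIH3T3 cells; actives raise luminescence as potentiators of the MG132 stress response.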 Format: functional.

Another test deals with Ephrin type-A receptor 4 (Mus musculus, UniProt Q03137). Description: EphA4 ligand-binding antagonists – biochemical, colorimetric, mouse EphA4, primary screen (AID 689). The test is classed as functional.
Chain of Ephrin type-A receptor 4 (Q03137 whole entry): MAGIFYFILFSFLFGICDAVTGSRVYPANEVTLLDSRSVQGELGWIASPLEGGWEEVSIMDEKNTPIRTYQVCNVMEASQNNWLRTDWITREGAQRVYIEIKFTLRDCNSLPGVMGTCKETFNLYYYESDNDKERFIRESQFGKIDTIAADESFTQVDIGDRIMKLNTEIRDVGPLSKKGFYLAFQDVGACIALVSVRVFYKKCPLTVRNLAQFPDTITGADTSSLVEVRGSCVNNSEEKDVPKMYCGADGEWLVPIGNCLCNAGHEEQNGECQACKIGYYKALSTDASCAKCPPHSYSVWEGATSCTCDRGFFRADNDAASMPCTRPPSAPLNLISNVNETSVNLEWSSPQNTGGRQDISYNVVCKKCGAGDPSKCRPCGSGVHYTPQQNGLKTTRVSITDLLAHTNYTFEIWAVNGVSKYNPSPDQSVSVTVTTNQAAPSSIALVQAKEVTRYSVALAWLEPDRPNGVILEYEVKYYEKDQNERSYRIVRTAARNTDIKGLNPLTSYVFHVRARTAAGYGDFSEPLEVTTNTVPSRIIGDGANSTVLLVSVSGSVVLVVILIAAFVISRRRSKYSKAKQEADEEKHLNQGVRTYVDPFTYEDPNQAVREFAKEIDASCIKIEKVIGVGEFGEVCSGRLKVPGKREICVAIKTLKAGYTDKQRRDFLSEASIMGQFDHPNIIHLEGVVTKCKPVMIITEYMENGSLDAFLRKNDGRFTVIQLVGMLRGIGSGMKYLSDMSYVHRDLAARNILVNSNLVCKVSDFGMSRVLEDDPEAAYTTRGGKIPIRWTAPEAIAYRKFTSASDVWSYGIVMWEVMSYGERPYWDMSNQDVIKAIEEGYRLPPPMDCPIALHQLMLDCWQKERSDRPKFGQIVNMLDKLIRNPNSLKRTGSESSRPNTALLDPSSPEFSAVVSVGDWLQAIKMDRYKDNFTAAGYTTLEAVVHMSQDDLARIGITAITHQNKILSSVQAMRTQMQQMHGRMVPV
The target in the next test is Paired box protein Pax-8 (Homo sapiens, UniProt Q06710). Description: PAX8 transcriptional activity inhibition in RMG-I – RMG-I cells, luciferase, cherry-pick, dose response (AID 687027).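 Note: luciferase reporter driven by Pax8 target thyroperoxidase promoter measured by SteadyGlo luminescence.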 Format: functional, cell-based.
Chain of Paired box protein Pax-8 (Q06710 whole entry): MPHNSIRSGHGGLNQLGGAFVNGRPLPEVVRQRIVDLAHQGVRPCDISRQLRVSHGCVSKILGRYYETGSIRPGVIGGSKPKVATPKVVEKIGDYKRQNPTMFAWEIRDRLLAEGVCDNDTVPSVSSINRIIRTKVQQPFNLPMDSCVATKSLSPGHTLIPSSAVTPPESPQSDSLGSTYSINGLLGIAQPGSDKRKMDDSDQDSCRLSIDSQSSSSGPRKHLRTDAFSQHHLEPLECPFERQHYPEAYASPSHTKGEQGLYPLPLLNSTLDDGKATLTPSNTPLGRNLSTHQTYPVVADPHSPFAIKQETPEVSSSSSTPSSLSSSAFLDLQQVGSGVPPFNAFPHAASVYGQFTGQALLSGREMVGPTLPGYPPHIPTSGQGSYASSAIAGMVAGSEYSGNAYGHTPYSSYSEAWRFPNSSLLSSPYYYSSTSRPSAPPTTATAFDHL
A short description of test [18]: general cell-killing toxicity readout – plate reader, dry powder samples, cytotoxicity control for PAX8 inhibitor project, dose response (AID 743021). Format: functional, cell-based.

Activity calls are given as the source filed them.

Chain of Cytochrome P450 2C19 (P33261 whole entry): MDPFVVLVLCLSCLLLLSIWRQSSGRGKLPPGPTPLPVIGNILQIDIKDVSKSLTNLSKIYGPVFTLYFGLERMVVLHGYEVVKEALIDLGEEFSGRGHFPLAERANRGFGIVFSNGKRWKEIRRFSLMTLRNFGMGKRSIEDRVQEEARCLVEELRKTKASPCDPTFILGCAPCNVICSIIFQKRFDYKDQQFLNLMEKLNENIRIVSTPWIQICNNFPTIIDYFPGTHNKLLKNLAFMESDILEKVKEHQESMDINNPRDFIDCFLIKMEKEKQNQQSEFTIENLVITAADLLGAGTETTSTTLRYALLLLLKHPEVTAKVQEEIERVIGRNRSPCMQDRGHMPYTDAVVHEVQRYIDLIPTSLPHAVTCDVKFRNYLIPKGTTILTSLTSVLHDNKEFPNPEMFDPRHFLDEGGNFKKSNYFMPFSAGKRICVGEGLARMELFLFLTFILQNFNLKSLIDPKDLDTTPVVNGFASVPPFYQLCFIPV

For `NC(=O)c1cc(N2CC2)c([N+](=O)[O-])cc1[N+](=O)[O-]` [TRETAZICAR], the EC50 in test [1] and in [2] was > 120 µM (not active) each time. In the test on Danio rerio, the half-maximal inhibitory concentration (IC50) is reported as 1.2 µM (not active). Further, the AC50 on Cytochrome P450 3A4 is 39.8 µM (inconclusive).
With `Cc1ccc(C(=O)Nc2nc3ccccc3s2)s1`, the IC50 in test [3] is recorded as > 55.7 µM (not active).
In the case of `CCCc1nc2ccccc2c(=O)n1/N=C/c1ccc(O)c(O)c1`, the IC50 in test [4] was 2.18 µM (active); on Leucine aminopeptidase, 24.2 µM (active); against Heat shock protein HSP90 it was 17.5816 µM; on Large T antigen, 10.5 µM (active); in test [6], 38.8 µM (active). Also, the AC50 in test [5] is 0.577 µM (active).
In the case of `Cc1ccc(S(=O)(=O)Nc2cnn(-c3ccccc3)c(=O)c2Cl)cc1`, the values for the EC50 in test [7], in test [8] and in test [11] were > 79.4 µM (inactive), > 79.4 µM (not active) and 19.2 µM (not active), respectively. In addition, the IC50 in [9] and in [10] was > 39.8 µM (not active) each time.
For `COc1cc2oc(-c3ccccc3)cc(=O)c2cc1OC`, the AC50 at Cytochrome P450 2C19 is 31.6 µM (inconclusive).
As for `CN1CC=C2C(C#N)=C(N)C(C#N)(C#N)C(c3cccc(Cl)c3Cl)C2C1` (stereo unspecified), the values for the IC50 (in [12]; on Bcl-2-related protein A1 [14]; on Bcl-2-related protein A1 [16]) were 12 µM (inactive), > 100 µM (not active) and > 100 µM (not active), respectively. Moreover, the EC50 in test [13] was 14.4 µM (active); in test [15] it was 13.5 µM (active); in [17], > 260 µM (inactive).
For `FC(F)(F)c1nnc2c(Sc3ccccn3)nc3ccccc3n12`, the IC50 at Ephrin type-A receptor 4 is listed as > 100 µM (not active). Moreover, the AC50 at Paired box protein Pax-8 is 7.08 µM (active); in test [18], 55.5 µM (active).

As usually defined, the EC50 is the midpoint of the concentration-response curve. A word on the IC50: it is the point on the concentration scale where inhibition reaches its midpoint.
